“Also recorded” adds a separate entry of the source.

Type in all cases: physicochemical
Series [1] is described as follows: Thermodynamic stability: slurry experiments, solid form evaluated by PXRD. Particulars: for Slurry Output (solid form): 2 weeks. As to the method: The thermodynamic stability of anhydrous lorlatinib free base (Form 7) was evaluated employing slurry experiments under a range of water activity and temperature conditions. […] After 2 weeks, the solids in equilibrium were isolated and the solid form was evaluated by PXRD.

The nature of series [2]: Solid-state physical stability of Form 7 API at elevated humidity / accelerated conditions. The source says: The physical stability of anhydrous lorlatinib free base (Form 7) API was investigated at elevated relative humidities (% RH) for extended time period and at accelerated stability conditions for shorter period.
Series [3] in a line: Physical stability in the drug product by FT-Raman and Solid State NMR spectroscopy. The conditions noted are these: for amount of physical impurity: in drug product. From the text: The physical stabilities of lorlatinib Form 7 and acetic acid solvate in the drug product were investigated under a variety of conditions using FT-Raman and Solid State NMR spectroscopy.

Regarding `C[C@H]1Oc2cc(cnc2N)-c2c(nn(C)c2C#N)CN(C)C(=O)c2ccc(F)cc21` [Form 7, (10R)-7-amino-12-fluoro-2,10,16-trimethyl-15-oxo-10,15,16,17-tetrahydro-2H-8,4-(metheno)pyrazolo[4,3-h][2,5,11]benzoxadiazacyclotetradecine-3-carbonitrile], the “Slurry Output (solid form)” value is recorded as “Form 16” in series [1] (IPA, water activity 0.25, 5° C.); “Form 7” in series [1] (IPA, water activity 0.25, 40° C.); “Form 7” in series [1] (IPA, water activity 0.25, RT); “Form 13” in series [1] (IPA, water activity 0.50, 5° C.); “Form 5” in series [1] (IPA, water activity 0.50, 40° C.); “Form 13” in series [1] (IPA, water activity 0.50, RT). In addition, the “Slurry Output (solid form)” value in series [1] (IPA, water activity 0.70, 5° C.) is “Form 13”; in series [1] (IPA, water activity 0.70, 40° C.) it was “Form 5”; in series [1] (IPA, water activity 0.70, RT) it was “Form 13”; in series [1] (IPA, water activity 0.90, 5° C.), “Form 13”; in series [1] (IPA, water activity 0.90, 40° C.), “Form 13”; in series [1] (IPA, water activity 0.90, RT) it was “Form 13”. Further, the “Slurry Output (solid form)” value in series [1] (MiBK, water activity 0, 5° C.) is “Form 7”; in series [1] (MiBK, water activity 0, 40° C.) it was “Form 7”; in series [1] (MiBK, water activity 0, RT), “Form 7”; in series [1] (TBME, water activity 0, 5° C.) it was “Form 7”; in series [1] (TBME, water activity 0, 40° C.) it was “Form 7”; in series [1] (TBME, water activity 0, RT) it was “Form 7”. In addition, the “Slurry Output (solid form)” value is on record as “Form 7” in series [1] (Toluene, water activity 0, 5° C.); “Form 7” in series [1] (Toluene, water activity 0, 40° C.); “Form 7” in series [1] (Toluene, water activity 0, RT); “Form 7 + Form 18” in series [1] (Water, water activity 1.00, 5° C.); “Form 7” in series [1] (Water, water activity 1.00, 40° C.); “Form 18” in series [1] (Water, water activity 1.00, RT). For the same molecule, the “Slurry Output (solid form)” value in series [1] (iProAc, water activity 0, 5° C.) is listed as “Form 7”; in series [1] (iProAc, water activity 0, 40° C.), “Form 7”; in series [1] (iProAc, water activity 0, RT), “Form 7”; in series [1] (nBuOH, water activity 0, 5° C.), “Form 7”; in series [1] (nBuOH, water activity 0, 40° C.) it was “Form 7”; in series [1] (nBuOH, water activity 0, RT) it was “Form 20”. In addition, the “Thermodynamic stability, overall outcome of slurry experiments” value in series [1] (diverse solvent systems, 5° C., room temperature and 40° C., water activities 0.25 to 1.00, 2 weeks) was “does not convert to a different anhydrous solid state”. Moreover, the “Solid Form after storage (physical stability)” value was “did not undergo any physical change; also recorded: Form 7” in series [2] (70° C./75% RH, 1 week); “did not undergo any physical change; also recorded: Form 7” in series [2] (75% RH, ambient temperature, 12 months); “Form 7” in series [2] (80° C./40% RH, 1 week); “did not undergo any physical change; also recorded: Form 7” in series [2] (90% RH, ambient temperature, 12 months). Moreover, the “Physical change after storage (physical stability)” value in series [2] (80° C./75% RH, 1 week (as printed in text)) is reported as “did not undergo any physical change”. For the same molecule, the “amount of physical impurity” value in series [3] (25° C./60% RH, 12 months) is reported as “No change detected”; in series [3] (30° C./65% RH, 12 months) it was “No change detected”; in series [3] (50° C./75% RH, 2 weeks), “No change detected”; in series [3] (70° C./10% RH, 3 weeks) it was “No change detected”; in series [3] (70° C./40% RH, 2 weeks) it was “No change detected”; in series [3] (70° C./75% RH, 1 week), “No change detected”. Further, in series [3] (representative drug product formulation), the “physical stability relative to the acetic acid solvate of lorlatinib free base” value is reported as “superior physical stability”.
In the case of `CC(=O)O.C[C@H]1Oc2cc(cnc2N)-c2c(nn(C)c2C#N)CN(C)C(=O)c2ccc(F)cc21` [lorlatinib acetic acid solvate, reference compound], the “amount of physical impurity” value in series [3] (70° C./10% RH, 3 weeks) is recorded as “impurity >50%”; in series [3] (70° C./40% RH, 2 weeks) it was “impurity >50%”; in series [3] (70° C./75% RH, 1 week), “impurity >50%”.

The values are drawn from US10420749B2, “Crystalline form of lorlatinib free base” (Pfizer Inc., priority 2015, dated 2019).
